Reference: article PMC5355811 (Nature Communications, 2017)
Like-named read-outs stand apart in the source and are kept apart here. One block for each molecule: values may come before it.

Columns and labels:
PC9 parent cells (del19) = assay: CellTiter-Glo cell viability assay, PC9 parent; type: cell-based; conditions: read-out: IC50, PC9 parent
Experimental: (§1) Three-day cell viability assays were carried out by plating 2,000, 1,500 and 2,000 cells per well of Ba/F3, PC9 or MGH121, respectively, into black transparent-bottom 96-well plates. On the same day for Ba/F3 cells and the following day for PC9 and MGH121 cells, the cells were treated with each TKI across a 10-dose range from 0.3 nmol l^−1 to 10 μmol l^−1. After 72 h of drug treatment, cell viability was measured using the CellTiter-Glo assay (Promega).

[1] = system: EGFR phosphorylation in PC9 triple-mutant cells; assay: Western blotting of EGFR signalling, PC9 triple mutant; type: cell-based
Experimental: (§2) Tumour tissues or cells grown under the specified conditions were washed with cold PBS before addition of the SDS lysis buffer (100 mM Tris, 1% SDS, 10% glycerol). Lysates were transferred to microtubes, boiled for 5 min at 100 °C and then vortexed. Protein quantification was performed using the BCA Protein Assay Reagent (Pierce) according to the manufacturer's protocol. Western blot analyses were conducted after separation by SDS-PAGE and transferred to polyvinylidene difluoride membranes.

[2] = system: PC9 T790M cells (T790M/del19); assay: CellTiter-Glo cell viability assay, PC9 T790M; type: cell-based; conditions: read-out: IC50, PC9 T790M
Experimental: as §1

[3] = system: Ba/F3 cells expressing EGFR-C797S/T790M/del19; assay: CellTiter-Glo cell viability assay, Ba/F3 EGFR-C797S/T790M/del19; type: cell-based; conditions: Mus musculus, BaF3, 72 h, Fig. 3b,c; 72 h
Experimental: as §1

[4] = system: Ba/F3 cells of EGFR-T790M/del19; assay: Drug sensitivity screening at 100 nM, Ba/F3 EGFR-T790M/del19; type: cell-based; conditions: for Relative cell viability (% of DMSO control): 100 nM; for viability at 0.1 µM: Mus musculus, BaF3, 72 h, read-out: Relative cell viability (ratio to DMSO control), del19/T790M
Experimental: (§3) After the incubation, cell viability was measured using CellTiter-Glo assay. The relative cell viability was calculated as a ratio of each value to that of the DMSO control.

[5] = system: Ba/F3 cells expressing EGFR-del19; assay: CellTiter-Glo cell viability assay, Ba/F3 EGFR-del19; type: cell-based; conditions: Mus musculus
Experimental: as §1

[6] = system: Ba/F3 cells expressing EGFR-L858R; assay: CellTiter-Glo cell viability assay, Ba/F3 EGFR-L858R; type: cell-based; conditions: read-out: IC50, Ba/F3 L858R
Experimental: as §1

[7] = system: Ba/F3 cells expressing EGFR-C797S/T790M/L858R; assay: CellTiter-Glo cell viability assay, Ba/F3 EGFR-C797S/T790M/L858R; type: cell-based; conditions: Mus musculus, BaF3; Supplementary Fig. 8e; 72 h
Experimental: as §1

[8] = system: PC9 triple-mutant cells (C797S/T790M/del19); assay: CellTiter-Glo cell viability assay, PC9 triple mutant; type: cell-based; conditions: read-out: IC50, PC9 triple
Experimental: as §1

[9] = system: Ba/F3 cells expressing EGFR-T790M/L858R; assay: CellTiter-Glo cell viability assay, Ba/F3 EGFR-T790M/L858R; type: cell-based; conditions: Mus musculus, BaF3; Supplementary Fig. 8e; 72 h; read-out: IC50, Ba/F3 T790M/L858R
Experimental: as §1

[10] = system: Ba/F3 cells of EGFR-del19; assay: Drug sensitivity screening at 100 nM, Ba/F3 EGFR-del19; type: cell-based; conditions: for Relative cell viability (% of DMSO control) in del19 Ba/F3 cells: 100 nM; for viability at 0.1 µM: Mus musculus, BaF3, 72 h, read-out: Relative cell viability (ratio to DMSO control), del19
Experimental: as §3

[11] = system: Ba/F3 cells expressing EGFR-T790M/del19; assay: CellTiter-Glo cell viability assay, Ba/F3 EGFR-T790M/del19; type: cell-based; conditions: Mus musculus
Experimental: as §1

[12] = system: Ba/F3 cells of EGFR-C797S/T790M/del19; assay: Drug sensitivity screening at 100 nM, Ba/F3 EGFR-C797S/T790M/del19; type: cell-based; conditions: Mus musculus; for viability at 0.1 µM: BaF3, 72 h, 100 nM inhibitor, 72 h, DMSO = 100, mean of three independent experiments (Fig. 1a data)
Experimental: as §3

[13] = system: A431, A549 and H460 cells; assay: CellTiter-Glo cell viability assay, non-EGFR-mutated cell lines; type: cell-based; conditions: A431 (EGFR amplification), A549 and H460 (KRAS mutation); 72 h
[14] = system: MGH121-res2 cells (C797S/T790M/del19); assay: cells; type: cell-based; conditions: Homo sapiens, read-out: IC50, MGH121-res2
Experimental: as §1

[15] = system: MGH121 parental cells (T790M/del19); assay: cells; type: cell-based; conditions: Homo sapiens, read-out: IC50, MGH121-pt
Experimental: as §1

[16] = 180 mg per day, cited from earlier work
[17] = system: PC9-triple mutant (C797S/T790M/del19) xenograft; conditions: for tumour growth, PC9 triple-mutant xenograft: osimertinib 50 mg kg^−1, brigatinib 75 mg kg^−1 once daily oral, cetuximab 1 mg per mouse three times a week, panitumumab 0.5 mg per mouse two times a week
Experimental: (§4) Tumour growth was monitored twice weekly by bilateral caliper measurement, and tumour volume was calculated as 0.5 × length × width × width (mm^3). […] The mice whose implanted tumour size was ranked in the top 5% and bottom 5% were excluded from randomization to minimize the variation of tumour sizes. The mice were treated once daily by oral gavage for the indicated period. Relative tumour volume was calculated by dividing by the tumour volume on day 0. The body weights of the mice were measured twice weekly. Implanted tumours were resected from the mice on day 15 of drug treatment and were fixed with formalin. The mice were euthanized when the tumour size exceeded 700 mm^3 within several days. The investigators performing tumour measurements were not blinded to treatment groups. The sample size (minimum n=6 per treatment group) was selected to ensure satisfactory inter-animal reproducibility. The Mann–Whitney U test was used for the statistical analysis of the mice experiments.

[18] = system: phosphorylation of EGFR in Ba/F3 cells expressing EGFR-C797S/T790M/del19; assay: Western blotting of EGFR signalling, Ba/F3 triple-del19; type: cell-based; conditions: 6 h
Experimental: as §2

EGFR-mutated lung cancer = conditions: patients with EGFR-mutated lung cancer, phase 1/2 trial; cited from earlier work
[19] = system: PC9-T790M (T790M/del19) xenograft; assay: PC9-T790M xenograft; type: in vivo, Balb-c nu/nu mice; conditions: osimertinib 50 mg kg^−1, brigatinib 75 mg kg^−1
Experimental: as §4

[20] = system: cell surface EGFR in PC9 triple-mutant cells; assay: Flow cytometry of cell surface EGFR; type: cell-based; conditions: 0, 6, 24 and 48 h
EGFR-C797S/T790M/L858R = EGFR-C797S/T790M/L858R (Homo sapiens, UniProt P00533, C797S/L858R/T790M); conditions: inhibition curves shifted with ATP concentration, triple-mutant and wild-type EGFR
Experimental: The appropriate amount of target proteins calculated on the basis of the ADP-Glo assay manufacturer's protocol was incubated in 96-well half area white plates with serially diluted inhibitor over a 10-dose range from 0.0002, nM to 10 μM for 10 min at room temperature. ATP at concentration of 1, 10, 100 and 1,000 nM was mixed with 100 μg ml^−1 substrate and added to a kinase protein–inhibitor mixture, and then incubated for 60 min at room temperature. After the kinase reaction, an equal volume of ADP-Glo Reagent was added to terminate the kinase reaction, and the remaining ATP was depleted. The Kinase Detection Reagent was added both to convert ADP to ATP and to allow the newly synthesized ATP to be measured using the luciferase/luciferin reaction. The light generated was measured using a luminometer.

[21] = system: MGH121-res2 (C797S/T790M/del19) xenograft; assay: MGH121-res2 xenograft; type: in vivo; conditions: brigatinib 75 mg kg^−1 po; cetuximab 1 mg per mouse two times a week
Experimental: (a,b) MGH121-res2 expressing EGFR-C797S/T790M/del19 were subcutaneously implanted into SCID-beige mice. […] Tumour volume (V) was calculated as 0.5 × length × width^2, and the body weights (B.W.) of the mice were measured twice weekly. N=6. Results are expressed as mean±s.d.

confirmed EGFR T790M = system: confirmed EGFR T790M; parameters: method as in PMID 25923549; conditions: 127 patients with confirmed EGFR T790M, phase 1/2 trial; cited from earlier work
[22] = 100 nM inhibitor, 72 h, DMSO = 100, mean of three independent experiments (Fig. 1a data)

EGFR-C797S/T790M/L858R, sequence (P00533 712-979 T790M/C797S/L858R): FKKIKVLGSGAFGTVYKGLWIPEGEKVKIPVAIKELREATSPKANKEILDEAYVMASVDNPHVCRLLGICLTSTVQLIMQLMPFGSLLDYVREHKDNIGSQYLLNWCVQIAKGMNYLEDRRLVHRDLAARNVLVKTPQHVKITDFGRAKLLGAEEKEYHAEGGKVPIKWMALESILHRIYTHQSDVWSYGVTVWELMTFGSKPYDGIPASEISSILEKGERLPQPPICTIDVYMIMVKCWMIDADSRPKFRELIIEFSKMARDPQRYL

IC50 (PC9 parent cells (del19); Table 1d, ALK–TKIs, 72 h): 253 nM
IC50 ([2]; Table 1d, ALK–TKIs, 72 h): 378 nM
IC50 [3]: 132 nM
IC50 ([5]; BaF3, Fig. 3c, 72 h, read-out: IC50, Ba/F3 Del19): 90 nM
IC50 ([6]; Mus musculus, BaF3, Supplementary Fig. 8e, 72 h): 287 nM
IC50 [7]: 168 nM
IC50 ([8]; Table 1d, ALK–TKIs, 72 h): 622 nM
IC50 [9]: 184 nM
IC50 ([11]; BaF3, Fig. 3c, 72 h, read-out: IC50, Ba/F3 T790M/del19): 175 nM
Compound: COc1cc(N2CCC(N)CC2)ccc1Nc1ncc(Cl)c(-c2c[nH]c3ccccc23)n1 [AZD3463]
EGFR phosphorylation and downstream signalling, PC9 triple-mutant cells [1]: mild activity
Relative cell viability (% of DMSO control) ([4]; 72 h, DMSO = 100, experiment 1): 78.5876
Relative cell viability (% of DMSO control) ([4]; 72 h, DMSO = 100, experiment 2): 91.5008
Relative cell viability (% of DMSO control) ([4]; 72 h, DMSO = 100, experiment 3): 89.0461
viability at 0.1 µM [4, 22]: 86.4%
Relative cell viability (% of DMSO control) in del19 Ba/F3 cells ([10]; 72 h, DMSO = 100, experiment 1): 35.8012
Relative cell viability (% of DMSO control) in del19 Ba/F3 cells ([10]; 72 h, DMSO = 100, experiment 2): 31.981
Relative cell viability (% of DMSO control) in del19 Ba/F3 cells ([10]; 72 h, DMSO = 100, experiment 3): 37.0414
viability at 0.1 µM [10, 22]: 34.9%
viability at 0.1 µM [12]: 89.3%

IC50 (PC9 parent cells (del19)): 133 nM
IC50 [2]: 244 nM
IC50 ([5]; BaF3, 72 h, read-out: IC50, Ba/F3 Del19): 43.7 nM
IC50 ([5]; BaF3, read-out: IC50, Ba/F3 del19): 39.4 nM
IC50 ([6]; Mus musculus, BaF3, 72 h): 207 nM
IC50 [6]: 133 nM
IC50 ([14]; MGH121, 72 h): 592 nM
IC50 [8]: 599 nM
IC50 ([11]; BaF3, 72 h, read-out: IC50, Ba/F3 T790M/del19): 150 nM
IC50 ([11]; BaF3, read-out: IC50, Ba/F3 T790M/del19): 120 nM
Compound: COc1cc(N2CCC(N3CCN(C)CC3)CC2)ccc1Nc1ncc(Cl)c(Nc2ccccc2P(C)(C)=O)n1 [Brigatinib, brigatinib]
EGFR phosphorylation and downstream signalling, PC9 triple-mutant cells [1]: inhibited EGFR phosphorylation and its downstream signalling
inhibitory activity (IC50) in cell lines without EGFR mutation [13]: less inhibitory activity to the cell lines without EGFR mutation than afatinib and osimertinib
viability at 0.1 µM [4, 22]: 69.2%
IC50 ([15]; MGH121, 72 h): 155 nM
plasma concentration in a steady state ([16]; ref 48): 1,694.3 nM
plasma concentration in a steady state ([16]; ref 49): 1,447 nM
viability at 0.1 µM [10, 22]: 10.3%
toxicity, PC9 triple-mutant xenograft-bearing mice ([17]; body weight, brigatinib 75 mg kg^−1 daily, with or without cetuximab): without explicit toxicity
tumour growth, PC9 triple-mutant xenograft [17]: significant inhibition of the growth of PC9-triple mutant cells
phosphorylation of EGFR and downstream signalling in tumour samples ([17]; western blotting of PC9-triple mutant tumours from mice): actually inhibited
phosphorylation of EGFR and downstream signalling, Ba/F3 triple-del19 [18]: decreased phosphorylation of EGFR and its downstream signalling pathway in a dose-dependent manner
cases that achieved partial response (EGFR-mutated lung cancer): two of 42 cases
tumour growth, T790M/del19-expressing PC9 xenograft [19]: successfully suppressed the growth
cell surface EGFR level [20]: no reduction
mode of EGFR kinase inhibition (EGFR-C797S/T790M/L858R): competitively affected the ATP-binding site of the EGFR kinase domain
tumour growth, MGH121-res2 xenograft [21]: growth inhibition effect
viability at 0.1 µM [12]: 59.2%
inhibition at 0.1 µM ([12]; BaF3, at 100 nM, read-out: growth inhibition against EGFR-triple-del19): ~50%

Compound: C=CC(=O)Nc1cc(Nc2nccc(-c3cn(C)c4ccccc34)n2)c(OC)cc1N(C)CCN(C)C [Osimertinib, osimertinib]
IC50 (PC9 parent cells (del19); Table 1c, EGFR–TKIs, 72 h): 7.46 nM
EGFR phosphorylation and downstream signalling, PC9 triple-mutant cells [1]: No reduction of the signal pathway
median progression-free survival (confirmed EGFR T790M): 9.6 months
response rate (confirmed EGFR T790M): 61%
IC50 ([2]; Table 1c, EGFR–TKIs, 72 h): 11.3 nM
viability at 0.1 µM [4]: 7.61%
IC50 ([14]; MGH121, Table 1e, 72 h): 7160 nM
IC50 ([15]; MGH121, Table 1e, 72 h): 2.58 nM
IC50 ([8]; Table 1c, EGFR–TKIs, 72 h): 3460 nM
viability at 0.1 µM [10]: 1.58%
tumour growth, PC9 triple-mutant xenograft [17]: without any superiority to control group
phosphorylation of EGFR and downstream signalling, Ba/F3 triple-del19 [18]: lack of inhibition of EGFR phosphorylation
tumour growth, T790M/del19-expressing PC9 xenograft [19]: successfully suppressed the growth

Compound: Cc1ccc(C(=O)Nc2ccc(CN3CCN(C)CC3)c(C(F)(F)F)c2)cc1C#Cc1cnc2cccnn12 [Ponatinib, ponatinib]
viability at 0.1 µM [4]: 53.5%
IC50 ([5]; BaF3, 72 h, read-out: IC50, Ba/F3 del19): 126 nM
viability at 0.1 µM [10]: 40.6%
phosphorylation of EGFR and downstream signalling, Ba/F3 triple-del19 [18]: no inhibitory activity
inhibition at 0.1 µM ([12]; BaF3, read-out: growth inhibition against EGFR-triple-del19): ~50%
